Where two headings read alike, the source gives them in different places. Starred links: 1 amine or outer side, 2 acyl side, 3 side chain; linkers in the order of their positions; H or OH if unused. Non-standard residues stand in square brackets, D forms with d. Residues, ends and D or L forms follow the SMILES beside them. Groups on a side chain read outwards from the residue. *: point of attachment. C18 diacid = O=C(O)CCCCCCCCCCCCCCCCC(=O)*; αMePhe(2-F) = C[C@](N)(Cc1ccccc1F)C(=O)O; γGlu = O=C(O)[C@H](CCC(=O)[*:2])N[*:1]; αMe4Pal = C[C@](N)(Cc1ccncc1)C(=O)O; αMeY = C[C@](N)(Cc1ccc(O)cc1)C(=O)O; 4Pal = N[C@@H](Cc1ccncc1)C(=O)O; αMeL = CC(C)C[C@](C)(N)C(=O)O; αMeS = C[C@](N)(CO)C(=O)O; Orn = NCCC[C@H](N)C(=O)O; AEEA = NCCOCCOCC(=O)O; Aib = CC(C)(N)C(=O)O
How the values were obtained:
Assay type in all cases: cell-based
hGIPR [1] = biological target: T1, hGIPR (Homo sapiens, UniProt P48546); assay: Functional cAMP activity in the presence of 1% HSA; details: read-out: cAMP Rel EC50, hGIPR
T1 sequence (P48546 22-466): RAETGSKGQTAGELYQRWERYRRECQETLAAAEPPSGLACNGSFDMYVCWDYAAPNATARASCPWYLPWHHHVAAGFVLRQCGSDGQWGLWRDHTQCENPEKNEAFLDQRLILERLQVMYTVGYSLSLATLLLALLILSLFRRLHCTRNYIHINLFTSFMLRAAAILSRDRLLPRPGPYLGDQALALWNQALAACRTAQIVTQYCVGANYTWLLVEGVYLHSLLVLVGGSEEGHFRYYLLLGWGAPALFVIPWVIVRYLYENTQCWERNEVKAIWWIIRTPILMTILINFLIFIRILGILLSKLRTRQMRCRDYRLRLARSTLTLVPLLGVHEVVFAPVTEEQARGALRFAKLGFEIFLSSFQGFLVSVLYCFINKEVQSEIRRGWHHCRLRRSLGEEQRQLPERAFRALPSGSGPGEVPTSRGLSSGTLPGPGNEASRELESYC

hGLP-1R [2] = biological target: T2, hGLP-1R (Homo sapiens, UniProt P43220); assay: Functional cAMP activity in the presence of 1% HSA; details: read-out: cAMP Rel EC50, hGLP-1R
T2 sequence (P43220 24-463): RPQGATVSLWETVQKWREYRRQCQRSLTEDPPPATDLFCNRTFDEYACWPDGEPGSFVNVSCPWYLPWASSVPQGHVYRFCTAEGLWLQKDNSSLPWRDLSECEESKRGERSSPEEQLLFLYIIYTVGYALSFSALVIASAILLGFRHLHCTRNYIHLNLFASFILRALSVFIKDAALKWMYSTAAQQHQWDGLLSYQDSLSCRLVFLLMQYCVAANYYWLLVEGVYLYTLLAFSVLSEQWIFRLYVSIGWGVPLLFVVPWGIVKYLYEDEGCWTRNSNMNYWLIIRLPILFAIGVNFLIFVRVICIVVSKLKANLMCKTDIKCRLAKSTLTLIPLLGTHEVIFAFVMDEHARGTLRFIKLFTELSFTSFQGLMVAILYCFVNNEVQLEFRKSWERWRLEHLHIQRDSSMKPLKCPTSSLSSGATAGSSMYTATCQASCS

human GcgR = human GcgR (Homo sapiens, UniProt P47871); assay: Functional cAMP activity in the presence of 1% HSA
Sequence of human GcgR (P47871 26-477): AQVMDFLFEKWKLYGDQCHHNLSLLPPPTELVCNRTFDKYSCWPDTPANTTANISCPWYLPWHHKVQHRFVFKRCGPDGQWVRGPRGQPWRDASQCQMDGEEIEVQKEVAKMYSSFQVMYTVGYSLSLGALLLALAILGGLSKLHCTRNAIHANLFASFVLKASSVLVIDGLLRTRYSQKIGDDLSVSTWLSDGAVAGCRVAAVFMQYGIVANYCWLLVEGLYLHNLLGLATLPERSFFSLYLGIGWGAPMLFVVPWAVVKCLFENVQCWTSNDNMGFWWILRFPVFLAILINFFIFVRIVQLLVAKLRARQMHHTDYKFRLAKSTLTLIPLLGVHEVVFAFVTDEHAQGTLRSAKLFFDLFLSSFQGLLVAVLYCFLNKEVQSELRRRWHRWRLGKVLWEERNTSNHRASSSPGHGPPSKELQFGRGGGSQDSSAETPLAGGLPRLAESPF

hGIPR [3] = biological target: T1, hGIPR; assay: Functional cAMP activation in the presence of 0.1% casein (no HSA);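 for Relative cAMP EC50, hGIPR: intracellular cAMP rise after 30 min at 37 °C read by HTRF against a standard curve, scaled between buffer alone (0%) and top control ligand concentration (100%), four-parameter fit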;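 for Relative cAMP EC50, hGLP-1R: intracellular cAMP rise after 30 min at 37 °C read by HTRF, normalized between buffer only (0%) and maximal control ligand (100%), four-parameter variable-slope fit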;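 for Relative cAMP EC50, hGcgR: intracellular cAMP rise after 30 min at 37 °C, read by HTRF against a cAMP standard curve, scaled from buffer only (0%) to maximal control ligand response (100%)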
hGLP-1R [4] = biological target: T2, hGLP-1R; assay: as above
hGcgR = hGcgR (Homo sapiens, UniProt P47871); assay: as above;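 note: intracellular cAMP rise after 30 min at 37 °C, read by HTRF against a cAMP standard curve, scaled from buffer only (0%) to maximal control ligand response (100%)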
Sequence of hGcgR (P47871 26-477): as above

[5] = read-out: Relative cAMP EC50, hGIPR
[6] = read-out: Relative cAMP EC50, hGLP-1R
[7] = read-out: Relative cAMP EC50, hGcgR
[8] = in the presence of 0.1% casein (no HSA), geometric mean, read-out: Relative cAMP EC50, hGIPR
[9] = in the presence of 0.1% casein (no HSA), geometric mean, read-out: Relative cAMP EC50, hGLP-1R
[10] = in the presence of 0.1% casein (no HSA), geometric mean, read-out: Relative cAMP EC50, hGcgR

| Compound | EC50 (hGIPR [1]) [nM] | EC50 (hGLP-1R [2]) [nM] | EC50 (human GcgR; read-out: cAMP Rel EC50, hGcgR) [nM] | EC50 (hGIPR [3]; [5]) [nM] | EC50 (hGLP-1R [4]; [6]) [nM] | EC50 (hGcgR; [7]) [nM] | EC50 (hGIPR [3]; [8]) [nM] | EC50 (hGLP-1R [4]; [9]) [nM] | EC50 (hGcgR; [10]) [nM] | EC50 (human GcgR) [nM] | EC50 (hGIPR [3]) [nM] | EC50 (hGLP-1R [4]) [nM] | EC50 (hGcgR) [nM] |
| --- | --- | --- | --- | --- | --- | --- | --- | --- | --- | --- | --- | --- | --- |
| CC[C@H](C)[C@H](NC(=O)[C@H](CCCN)NC(=O)[C@H](CC(=O)O)NC(=O)[C@H](CC(C)C)NC(=O)[C@H](CC(C)C)NC(=O)[C@@H](NC(=O)[C@H](CO)NC(=O)[C@H](Cc1ccncc1)NC(=O)[C@H](CC(=O)O)NC(=O)[C@H](CO)NC(=O)[C@@H](NC(=O)[C@](C)(Cc1ccccc1F)NC(=O)[C@@H](NC(=O)CNC(=O)[C@H](CCC(N)=O)NC(=O)C(C)(C)NC(=O)[C@@H](N)Cc1ccc(O)cc1)[C@@H](C)O)[C@@H](C)O)[C@@H](C)CC)C(=O)N[C@@H](C)C(=O)N[C@@H](CCC(N)=O)C(=O)NC(C)(C)C(=O)N[C@@H](C)C(=O)N[C@@H](Cc1ccccc1)C(=O)N[C@H](C(=O)N[C@@H](CCCCNC(=O)COCCOCCNC(=O)CC[C@H](NC(=O)CCCCCCCCCCCCCCCCC(=O)O)C(=O)O)C(=O)N[C@@H](Cc1ccc(O)cc1)C(=O)N[C@@H](CC(C)C)C(=O)N[C@@H](CCC(=O)O)C(=O)N[C@@H](CCC(=O)O)C(=O)NCC(=O)NCC(=O)N1CCC[C@H]1C(=O)N[C@@H](CO)C(=O)N[C@@H](CO)C(=O)NCC(=O)N[C@@H](C)C(=O)N1CCC[C@H]1C(=O)N1CCC[C@H]1C(=O)N1CCC[C@H]1C(=O)N[C@@H](CO)C(N)=O)[C@@H](C)CC [Example 454] (H-Y[Aib]QGT[αMePhe(2-F)]TSD[4Pal]SILLD[Orn]IAQ[Aib]AFIK([AEEA-γGlu-C18 diacid])YLEEGGPSSGAPPPS-NH2) | 4.31 | 135 | 1280 | 0.0154 | 0.821 | 9.11 | – | – | – | – | – | – | – |
| H-Y[Aib]QGTFTSDFSK[αMeL]LDKK([AEEA-γGlu-C18 diacid])AQ[Aib]AFIEYLIEGGESSGAPPPSGS-NH2 [Example 215] | 87.3 | 162 | 1510 | – | – | – | 0.418 | 0.803 | 9.77 | – | – | – | – |
| H-Y[Aib]QGT[αMePhe(2-F)]TSD[4Pal][αMeS]I[αMeL]LD[Orn]K([AEEA-γGlu-C18 diacid])AQ[αMe4Pal]EFI[dE][αMeY]LIEGGPSSGAPPPGGE-NH2 [Example 1144] | 0.72 | 36.5 | 196 | – | – | – | 0.00649 | 0.282 | 1.32 | – | – | – | – |
| H-Y[Aib]QGT[αMePhe(2-F)]TSD[4Pal][αMeS]I[αMeL]LD[Orn]K([γGlu-γGlu-C18 diacid])AQ[αMe4Pal]EFI[dE][αMeY]LIEGGPSSGAPPPEGTGE-NH2 [Example 764] | 0.649 | 38.8 | – | – | – | – | – | – | – | 146 | 0.00626 | 0.289 | 1.63 |
| H-Y[Aib]QGT[αMePhe(2-F)]TSD[4Pal]SILLDKK([γGlu-γGlu-C18 diacid])AQ[Aib]AFIEYLQEGGPSSGAPPPSGTE-NH2 [Example 553] | 2.97 | 51 | 523 | 0.0371 | 0.398 | 4.53 | – | – | – | – | – | – | – |
| H-Y[Aib]QGT[αMePhe(2-F)]TSD[4Pal][αMeS]I[αMeL]LD[Orn]K([γGlu-γGlu-C18 diacid])AQ[Aib][Orn]FI[dE][αMeY]LTEGGPSSGEPPPSGTE-NH2 [Example 542] | 1.69 | 29.6 | 256 | 0.0336 | 0.388 | 5.03 | – | – | – | – | – | – | – |

From US20240270821A1, “GIP/GLP1/GCG TRI-RECEPTOR AGONISTS AND USES THEREOF” (priority 2023, published 2024)
